Measured values as given in PMC5933261, “A phase 1 dose-escalation study of veliparib with bimonthly FOLFIRI in patients with advanced solid tumours” (British Journal of Cancer, 2018).
Entries after “also recorded” stand apart in the source; their conditions may differ.

How the values were obtained:
[1] = tested on: triple-negative breast cancer; design: method as in doi:10.1158/1538-7445.AM2015-CT325; settings: veliparib in combination with irinotecan; cohort with germline BRCA mutation; cited from earlier work
[2] = Veliparib pharmacokinetics, cycle 1 day 15; type: in vivo, human; settings: co-administered with FOLFIRI; 10–270 mg BID
[3] = tested on: patients with advanced solid tumours
From the text: This phase 1 open-label, multicentre, dose-escalation, and safety expansion study evaluated veliparib in combination with bimonthly FOLFIRI in patients with advanced solid tumours. The primary objectives were to determine the maximum tolerated dose (MTD) and establish the recommended phase 2 dose (RP2D) of the combination therapy. Secondary objectives were to assess the safety and tolerability, PK profile, and exploratory efficacy of the combination for each of the FOLFIRI regimens. Patients received veliparib and bimonthly FOLFIRI in 28-day cycles. Veliparib was administered on days 15–19 in cycle 1 and on days 1–5 and 15–19 in subsequent cycles (Fig. 1). Patients with stable disease or better status could continue veliparib and bimonthly FOLFIRI at the investigator’s discretion until progressive disease (PD), unacceptable toxicity, or FOLFIRI discontinuation. The trial was registered with the ClinicalTrials.gov registry (NCT01123876) and was approved by appropriate independent ethics committees/institutional review boards prior to initiation. The study was performed in accordance with the 1964 Declaration of Helsinki and its later amendments. Written informed consent was obtained from all patients before study enrollment.
Dose escalation occurred in three parts to evaluate the MTD/RP2D of three different bimonthly FOLFIRI regimens in combination with veliparib (Fig. 1). A minimum of three patients per dose level were included for dose-toxicity modeling. In part 1, dose escalation began with veliparib twice daily (BID) on days 15–19 of cycle 1 (to allow the determination of single-agent PK for irinotecan, the active metabolite of irinotecan (SN-38), folinic acid, and 5-FU on cycle 1 day 1). In parts 2 and 3, dose escalation began with veliparib BID on day 15 of cycle 1. The differences in the dosing schedules of parts 1, 2, and 3 relate to dosing of irinotecan and 5-FU, and are detailed in Fig. 1. In all parts, veliparib continued to be administered on days 1–5 and 15–19 of each subsequent 28-day cycle. […]

advanced solid tumours = assay: Exploratory efficacy: ORR (RECIST version 1.1), TTP, DOR; type: in vivo, human
From the text: The sample size was based on clinical justification.

[4] = Pharmacokinetics of FOLFIRI components with and without veliparib (relative bioavailability); settings: cycle 1 day 15 vs cycle 1 day 1
Protocol: Treatment-emergent adverse events (TEAEs) were assessed from the time of study drug administration until 30 days following discontinuation of study drug. TEAEs were assessed according to the National Cancer Institute Common Terminology Criteria for Adverse Events version 4.0. In dose-escalation cohorts, blood samples were collected on day 15 of cycle 1 for veliparib PK, and on days 1 and 15 of cycle 1 for PK assessment of the FOLFIRI components irinotecan, SN-38, folinic acid (leucovorin), and 5-FU. Exploratory efficacy end points included objective response rate (ORR), time to disease progression (TTP), duration of overall response (DOR), and ECOG performance status. Objective response rate included confirmed complete response (CR) and partial response (PR). Objective response rate evaluation was based on Response Evaluation Criteria in Solid Tumours version 1.1. Objective response rate was calculated for all patients with one or more measurable lesions at baseline. Time to disease progression was defined as the number of days from the date the patient started study drug to the date of the patient’s disease progression. Duration of overall response was defined as the number of days from the day criteria were met for CR or PR (whichever was recorded first) to the date that PD was objectively documented. If a patient was still responding, the patient’s data were censored at the date of the last study visit at which a tumour assessment was performed. Analyses of change and/or percentage change from baseline for tumour size were performed for each scheduled post-baseline visit and for the final visit. ECOG performance status was assessed at all visits, with descriptive statistics summarised for each assessment. In addition, a mean change from baseline to each assessment time was summarised.
The sample size was based on clinical justification. No specific statistical hypothesis tests were planned, with descriptive statistics used for the analysis of safety, PK, and tumour response data. The study population for all safety and preliminary efficacy analyses included patients who received one or more doses of study medication. Data from parts 1–3 of the dose-escalation cohort were combined for assessment of the effect of veliparib on the PK of irinotecan, SN-38, and folinic acid. Linear mixed effects models were performed on natural logarithmically transformed maximum plasma concentration (Cmax) and area under the plasma or serum concentration-time curve (AUC) to compare exposure of irinotecan, SN-38, and folinic acid with and without the administration of veliparib. Point estimates and the corresponding 90% confidence intervals (CIs) of the ratio of central values with and without veliparib administration were calculated.

## C[C@]1(c2nc3c(C(N)=O)cccc3[nH]2)CCCN1 [veliparib, Veliparib]
[1]
  Preliminary response rate: 88%
[2]
  Dose proportionality of veliparib exposure (Cmax, AUC): approximately dose-proportional; also recorded: approximate dose proportionality
[3]; human, in vivo
  Recommended phase 2 dose (RP2D) of veliparib: 200 mg BID
[3]; veliparib 10–270 mg BID plus FOLFIRI, Bayesian CRM
  Maximum tolerated dose (MTD): not reached
Advanced solid tumours; expanded safety cohort, colorectal (N=6)
  Median time to disease progression (TTP): 195 days
Advanced solid tumours; expanded safety cohort, colorectal cancer (n = 6), veliparib RP2D plus FOLFIRI
  6-month TTP rate: 60.0%
Advanced solid tumours; expanded safety cohort, gastric (N=14)
  Median time to disease progression (TTP): 223 days
Advanced solid tumours; expanded safety cohort, gastric cancer (n = 14), veliparib RP2D plus FOLFIRI
  6-month TTP rate: 53.8%
Advanced solid tumours; veliparib plus FOLFIRI
  Complete response (CR): not achieved by any patients
  Patients with a partial response: Fifteen
Advanced solid tumours; veliparib plus FOLFIRI, 85 patients with measurable lesions at baseline
  Objective response rate (ORR): 17.6%
Advanced solid tumours; veliparib plus FOLFIRI, Breast n = 8
  ORR (CR + PR): 2 (25.0) (3.2–65.1) n (%) (95% CI)
Advanced solid tumours; veliparib plus FOLFIRI, Colorectal n = 9
  ORR (CR + PR): 2 (22.2) (2.8–60.0) n (%) (95% CI)
Advanced solid tumours; veliparib plus FOLFIRI, Gastric n = 20
  ORR (CR + PR): 3 (15.0) (3.2–37.9) n (%) (95% CI)
Advanced solid tumours; veliparib plus FOLFIRI, Other n = 27
  ORR (CR + PR): 3 (11.1) (2.4–29.2) n (%) (95% CI)
Advanced solid tumours; veliparib plus FOLFIRI, Ovarian n = 7
  ORR (CR + PR): 3 (42.9) (9.9–81.6) n (%) (95% CI)
Advanced solid tumours; veliparib plus FOLFIRI, Overall n = 85, measurable lesions at baseline
  ORR (CR + PR): 15 (17.6) (10.2–27.4) n (%) (95% CI)
Advanced solid tumours; veliparib plus FOLFIRI, Pancreatic n = 14
  ORR (CR + PR): 2 (14.3) (1.8–42.8) n (%) (95% CI)
Advanced solid tumours; veliparib plus FOLFIRI, all dosed patients, colorectal (N=10)
  Median time to disease progression (TTP): 195 days
Advanced solid tumours; veliparib plus FOLFIRI, all dosed patients, gastric (N=20)
  Median time to disease progression (TTP): 157 days
Advanced solid tumours; veliparib plus FOLFIRI, all dosed patients, ovarian (N=9)
  Median time to disease progression (TTP): 361 days
Advanced solid tumours; veliparib plus FOLFIRI, breast cancer
  Objective response rate (ORR): 25.0%
Advanced solid tumours; veliparib plus FOLFIRI, breast cancer (n = 9)
  6-month TTP rate: 22.2%
Advanced solid tumours; veliparib plus FOLFIRI, colorectal cancer
  Objective response rate (ORR): 22.2%
Advanced solid tumours; veliparib plus FOLFIRI, colorectal cancer (n = 10)
  6-month TTP rate: 50.8%
Advanced solid tumours; veliparib plus FOLFIRI, gastric cancer (n = 20)
  6-month TTP rate: 45.9%
Advanced solid tumours; veliparib plus FOLFIRI, other cancers (n = 30)
  6-month TTP rate: 21.2%
Advanced solid tumours; veliparib plus FOLFIRI, ovarian cancer (n = 7)
  Objective response rate (ORR): 42.9%
Advanced solid tumours; veliparib plus FOLFIRI, ovarian cancer (n = 9)
  6-month TTP rate (probability of remaining progression-free for 6 months): 65%
Advanced solid tumours; veliparib plus FOLFIRI, pancreatic cancer
  Objective response rate (ORR): 14.3%
Advanced solid tumours; veliparib plus FOLFIRI, pancreatic cancer (n = 14)
  6-month TTP rate: 26.8%
Advanced solid tumours; veliparib plus FOLFIRI, patients who received irinotecan 150 mg/m^2
  Median duration of overall response (DOR): 560 days
Advanced solid tumours; veliparib plus FOLFIRI, previously treated patient population
  Response rates: over 15%
[4]
  Effect of veliparib on the pharmacokinetics of FOLFIRI components: no significant effect
[4]; listed as Veliparib
  Effect of veliparib on the pharmacokinetics of FOLFIRI components: no effect
